Laboratory results published in patent publication US7662382B2, “Inducible ligand for α1β1 integrin and uses” (Boys Town National Research Hospital, priority 2002, dated 2010).

Legend:
[1] = test system: primary kidney endothelial cell cultures; experiment: Binding of Alexa-568-conjugated α1β1 integrin to treated primary kidney endothelial cells; format: cell-based, mouse
Protocol: Primary endothelial cells were isolated from wild type mouse kidneys using anti-CD31 coated metallic beads. Cells were cultured in endothelial cell medium (DMEM/F12, 50 μg/ml Endothelial mitogen, 1% penicillin/streptomycin, 20 mM L-Glutamine, and 1 U/mL heparin prepared fresh not filtered) containing 20% FCS. Thirty-two wells of 5×10^4 cells/well in a 96 well plate coated with 1% gelatin in sterile PBS were set up. Cells were maintained in endothelial cell media with 20% FCS until cells reached confluence. Confluent cells were washed with HBSS, then covered with endothelial cell media without serum at 200 μL/well and kept in a humidified chamber at 37° C., 5% CO2. Twenty-four hours later fresh endothelial cell medium was added without serum and various concentrations of MCP-1 and H2O2 were added at 24 or 48 hours (hrs) prior to conducting the assay for cell binding to α1β1 integrin as shown in the following Table 1.

[2] = biological target: T1, ligand for α1β1 integrin on endothelial cells (Collagen XIII) (Mus musculus, UniProt Q9R1N9); experiment: Monocyte efflux into the interstitium of Alport kidneys after injection of purified α1β1 integrin (Alexa 568 dextran trafficking); format: in vivo; settings: Alport mice, 5 μg purified α1β1 integrin into tail vein daily from one day before labeled dextrans, kidneys three days after dextrans, vs untreated Alport mice
T1 construct: from tissue; host or cells: vascular endothelium of kidneys of living Alport (collagen IV α3 -/-) mice
Description: Male wild type 129SV and 129SVJ mice (4-12 weeks old) along with collagen IV α3 (−/−) (Alport: 5-8 weeks old) and collagen IV α3 (−/−)/integrin α1 (−/−) double knock out (DKO: 8-12 weeks old) mice were tail vein injected with […] of Alexa 568 labeled dextran reconstituted in 100 microliters (μL) Hanks Balanced Salt Solution (pH 7.2). Three days post injection animals were given a lethal injection of averitin (0.55 grams per kilogram (g/kg) body weight; ip) followed by cardiac perfusion with ice cold PBS. Kidneys were removed and immersed in increasing concentrations of ice cold sucrose (30% max) then embedded in Tissue Tek OCT mounting medium (Sakura Finetek USA, Inc., Torrence, Calif.) and stored at −80° C.
Fresh frozen tissue sections (4 μm) were fixed in 2% paraformaldehyde for 5 minutes and allowed to dry overnight at 4° C. followed by extended storage at −20° C. or immunohistochemical detection of monocytes using rat monoclonal α-CD11b (Cedar Lane laboratories, Hornby, Ontario) and Goat anti rat Alexa 488 (Molecular Probes, Inc. Eugene, Oreg.) antibodies at 1:100 and 1:200 dilutions respectively. Sections were cover slipped with vectorshield mounting medium (Vector Corp. Burlingme, Calif.). […] Green fluorescence alone as well as co-localized dual fluorescence were measured using Image Pro Plus software (Media Cybernetics, Inc. Silver Spring, Md.). […]

[3] = Pilot stability study with Alexa-conjugated integrin α1β1; settings: Alexa-conjugated integrin α1β1, data not shown
Protocol: In an attempt to provide a more definitive test for the function of α1β1 in monocyte efflux into diseased kidneys, 5 μg of purified α1β1 integrin was injected into the tail vein of Alport mice daily, starting one day before injection of labeled dextrans, and kidneys harvested three days following injection of dextrans. Pilot studies with Alexa-conjugated integrin α1β1 were conducted to assess the stability prior to the blocking experiments. […] If transendothelial migration of monocytes into the interstitial space is mediated, in part, through binding a ligand on endothelial cells, a decrease in labeled monocytes in Alport mice treated with α1β1 integrin compared to untreated age-matched Alport mice should be observed, since the purified integrin should occupy ligand, making less available for binding to monocytes.

[4] = test system: renal cortical vascular endothelium; experiment: Binding of Alexa 568-labeled purified α1β1 integrin to kidney vascular endothelium after tail vein injection; format: in vivo, mouse; settings: 24 hours after tail vein injection
Description: If such a direct role exists, there must be a ligand for α1β1 integrin on the renal cortical vascular endothelium of Alport mice that is absent on normal mice. To test for the presence of such a ligand, purified α1β1 integrin (purchased from Chemicon, Temecula, Calif.) was labeled with Alexa 568, and the labeled integrin injected into the tail vein of normal, Alport, and DKO mice. Twenty-four hours following the injection, kidneys were harvested, and cryosections examined. […] Since monocytes phagocytize labeled dextrans, what is interpreted as integrin might be phagocytized integrin in monocytes.

T1 sequence (Q9R1N9 whole entry): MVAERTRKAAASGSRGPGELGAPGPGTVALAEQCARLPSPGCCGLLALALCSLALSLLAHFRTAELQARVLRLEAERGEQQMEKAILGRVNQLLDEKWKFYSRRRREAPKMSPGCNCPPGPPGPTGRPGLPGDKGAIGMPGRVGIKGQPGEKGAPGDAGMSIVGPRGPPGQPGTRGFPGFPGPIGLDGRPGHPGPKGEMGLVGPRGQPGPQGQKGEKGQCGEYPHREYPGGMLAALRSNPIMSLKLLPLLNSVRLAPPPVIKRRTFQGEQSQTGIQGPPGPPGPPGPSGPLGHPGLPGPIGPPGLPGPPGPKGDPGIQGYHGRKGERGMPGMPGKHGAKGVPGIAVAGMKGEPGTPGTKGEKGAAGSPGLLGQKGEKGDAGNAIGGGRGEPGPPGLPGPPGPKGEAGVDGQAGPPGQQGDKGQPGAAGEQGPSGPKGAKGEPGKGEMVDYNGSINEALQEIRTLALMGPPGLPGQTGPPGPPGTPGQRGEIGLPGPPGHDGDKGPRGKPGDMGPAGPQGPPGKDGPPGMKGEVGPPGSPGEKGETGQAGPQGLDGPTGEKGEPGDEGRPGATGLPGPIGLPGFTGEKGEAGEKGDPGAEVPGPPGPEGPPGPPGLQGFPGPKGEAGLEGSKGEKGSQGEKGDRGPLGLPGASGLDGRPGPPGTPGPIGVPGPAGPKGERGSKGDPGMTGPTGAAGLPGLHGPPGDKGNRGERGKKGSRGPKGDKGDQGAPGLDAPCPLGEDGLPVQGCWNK

Compound: OO [hydrogen peroxide, reference compound]
- binding of Alexa-conjugated α1β1 integrin to cultured primary kidney endothelial cells ([1]; cells treated with hydrogen peroxide (24 or 48 hrs), concentration and time-dependent): promotes the binding

Compound: purified α1β1 integrin: purified human α1β1 integrin purchased from Chemicon, Temecula, Calif.; also used labeled with Alexa 568
- monocyte efflux (Alexa-labeled CD11b-positive monocytes in the interstitium) [2]: a trend for a reduction in monocyte efflux
- stability of the purified integrin [3]: at least 72 hours
- labeling of kidney cryosections by Alexa 568-labeled integrin ([4]; Alport mice): strong labeling in the vascular endothelium
- labeling of kidney cryosections by Alexa 568-labeled integrin ([4]; normal (control) mice): absence of label

Compound: MCP-1: recombinant monocyte chemo-attractive protein-1, a chemokine
- adhesion of α1β1 integrin to endothelial cells ([1]; cells pre-treated with recombinant MCP-1 (24 or 48 hrs) vs untreated cells, time and dose dependent): significantly elevated adhesion
